The values that follow come from publication PMC3940197, “Identification of the first small-molecule ligand of the neuronal receptor sortilin and structure determination of the receptor–ligand complex” (Acta Crystallographica Section D: Biological Crystallography, 2014).

Assay [1] deals with T1, sortilin (Homo sapiens, UniProt Q99523).
T1 construct: The extracellular Vps10p domain of sortilin was overexpressed in HEK293F cells and purified from the medium; made in house; host or cells: HEK293F
T1 sequence (Q99523 78-755 limits assumed): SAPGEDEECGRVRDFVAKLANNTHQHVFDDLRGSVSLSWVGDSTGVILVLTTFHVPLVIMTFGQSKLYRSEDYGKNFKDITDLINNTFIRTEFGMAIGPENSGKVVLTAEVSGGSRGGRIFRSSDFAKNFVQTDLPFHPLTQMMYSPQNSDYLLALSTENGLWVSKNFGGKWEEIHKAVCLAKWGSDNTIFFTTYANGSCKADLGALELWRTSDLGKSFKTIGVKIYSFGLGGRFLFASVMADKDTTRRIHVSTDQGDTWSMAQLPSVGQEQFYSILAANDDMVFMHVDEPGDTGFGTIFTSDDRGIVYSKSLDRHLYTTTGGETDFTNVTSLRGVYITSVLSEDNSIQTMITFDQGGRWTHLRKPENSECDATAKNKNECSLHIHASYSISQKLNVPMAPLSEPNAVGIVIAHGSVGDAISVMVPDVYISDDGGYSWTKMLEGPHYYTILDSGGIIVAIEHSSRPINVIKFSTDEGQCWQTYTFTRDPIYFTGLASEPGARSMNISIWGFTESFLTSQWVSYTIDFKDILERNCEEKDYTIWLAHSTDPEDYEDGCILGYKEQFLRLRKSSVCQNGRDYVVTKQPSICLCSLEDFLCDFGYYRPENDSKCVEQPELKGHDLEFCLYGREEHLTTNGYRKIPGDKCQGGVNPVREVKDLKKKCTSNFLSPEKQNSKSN
Put plainly: 3H-neurotensin-binding sortilin scintillation proximity assay (SPA). The settings on record: for IC50: 150 nM sortilin, 5 nM 3H-neurotensin, averages of at least four determinations, read-out: IC50 (displacement of 3H-neurotensin binding to sortilin); for activity in SPA assay (in words): structure-activity relationship relative to hit 1a. As to the method: The open reading frame of human sortilin including the endogenous signal peptide to residue 723 was amplified by PCR and cloned into the pCEP-pu vector with XbaI and XhoI. The primers were designed to include a C-terminal factor Xa site followed by a hexahistidine tag. HEK293F cells were transfected with 900 µg plasmid, applying 900 µl FreeStyle MAX reagent (Invitrogen) according to the manufacturer’s instructions, and were grown in 900 ml FreeStyle 293 medium (Invitrogen) in a 3 l Erlenmeyer flask for 7 d. The medium was harvested by centrifugation at 3700g for 15 min, filtered through a 0.40 µm filter and the pH was adjusted by supplementation with Tris–HCl pH 8.0 to a final concentration of 50 mM. A 5 ml Ni–NTA column (GE Healthcare) was equilibrated in buffer A (50 mM Tris–HCl pH 8.0, 150 mM NaCl) and the medium was recirculated over the column overnight. The column was washed with five column volumes of wash buffer (50 mM Tris–HCl pH 8.0, 150 mM NaCl, 10 mM imidazole) and sortilin was eluted with a ten-column-volume imidazole gradient (10–250 mM imidazole). Fractions containing sortilin were pooled and concentrated by […] (Vivaspin 20, 10 kDa cutoff, Sartorius). The sortilin was applied onto a Superdex 200 10/300 GL column (GE Healthcare) equilibrated in buffer A. Fractions containing sortilin were pooled, concentrated to a final concentration of 5 mg ml^−1, flash-frozen in liquid nitrogen and stored at −80°C.
The compound affinity was determined by measuring the displacement of ^3H-neurotensin binding to sortilin using a scintillation proximity assay (SPA). Experiments were performed in assay buffer (50 mM HEPES pH 7.4, 100 mM NaCl, 2.0 mM CaCl2, 0.1% BSA, 0.1% Tween-20) with a total volume of 40 µl. The compound was pre-incubated for 30 min at room temperature with 150 nM sortilin before 5 nM ^3H-neurotensin and Ni-chelate imaging beads (Perkin Elmer) were added. After 6 h, the plate was read on a ViewLux with 360 s exposure time. Unlabelled neurotensin and a DMSO blank were used as positive and negative controls, respectively. Dose-response evaluation of compounds was performed with ten concentrations of 1a–1h and AF40431 (covering concentrations between 2.5 nM and 50 µM). The half-maximal inhibitory concentration (IC50) values were calculated by nonlinear regression using the sigmoid concentration response (variable slope) in XLfit 4 (IDBS, UK). All values reported are the averages of at least four determinations.
In general terms: SPA uses beads or plates that emit light when radiolabelled molecules are held near them.

The target of assay [2] is T2, sortilin (Homo sapiens, UniProt Q99523).
T2 construct: The extracellular Vps10p domain of sortilin was overexpressed in HEK293F cells and purified from the medium; made in house; host or cells: HEK293F
T2 sequence (Q99523 78-756): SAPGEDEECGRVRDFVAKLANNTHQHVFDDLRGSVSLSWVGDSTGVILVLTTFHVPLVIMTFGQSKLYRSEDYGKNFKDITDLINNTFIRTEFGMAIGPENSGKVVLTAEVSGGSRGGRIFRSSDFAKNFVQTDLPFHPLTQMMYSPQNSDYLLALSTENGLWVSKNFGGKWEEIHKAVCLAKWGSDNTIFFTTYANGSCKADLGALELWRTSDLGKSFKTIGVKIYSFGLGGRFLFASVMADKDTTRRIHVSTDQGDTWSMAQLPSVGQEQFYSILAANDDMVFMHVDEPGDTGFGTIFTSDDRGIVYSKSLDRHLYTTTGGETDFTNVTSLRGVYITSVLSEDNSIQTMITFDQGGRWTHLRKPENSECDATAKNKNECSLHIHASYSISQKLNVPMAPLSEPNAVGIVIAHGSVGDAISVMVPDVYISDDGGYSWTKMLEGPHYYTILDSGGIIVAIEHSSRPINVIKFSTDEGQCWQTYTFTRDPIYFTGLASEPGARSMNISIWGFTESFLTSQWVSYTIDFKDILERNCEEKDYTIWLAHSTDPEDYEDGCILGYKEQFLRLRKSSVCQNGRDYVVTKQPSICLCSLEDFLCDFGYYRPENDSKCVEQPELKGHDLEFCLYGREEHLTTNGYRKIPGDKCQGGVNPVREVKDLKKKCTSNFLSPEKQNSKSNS
Kind of assay: Isothermal titration calorimetry (ITC) of binding to sortilin. The conditions noted are these: 25°C, PBS pH 7.4, 4% DMSO, read-out: dissociation constant (Kd). How it is done:
The open reading frame of human sortilin including the endogenous signal peptide to residue 723 was amplified by PCR and cloned into the pCEP-pu vector with XbaI and XhoI. The primers were designed to include a C-terminal factor Xa site followed by a hexahistidine tag. HEK293F cells were transfected with 900 µg plasmid, applying 900 µl FreeStyle MAX reagent (Invitrogen) according to the manufacturer’s instructions, and were grown in 900 ml FreeStyle 293 medium (Invitrogen) in a 3 l Erlenmeyer flask for 7 d. The medium was harvested by centrifugation at 3700g for 15 min, filtered through a 0.40 µm filter and the pH was adjusted by supplementation with Tris–HCl pH 8.0 to a final concentration of 50 mM. A 5 ml Ni–NTA column (GE Healthcare) was equilibrated in buffer A (50 mM Tris–HCl pH 8.0, 150 mM NaCl) and the medium was recirculated over the column overnight. […]
The binding of AF40431 to sortilin was measured by isothermal titration calorimetry (ITC). […] Heat evolving from dilution was measured by injecting the ligand into PBS supplemented with 4% DMSO. […] Finally, the binding stoichiometry (n), equilibrium dissociation constant (K d), molar enthalpy and entropy changes for the binding processes were determined by analyzing the titration data using Origin software (OriginLab, Northampton, Massachusetts, USA).
For orientation: Isothermal titration calorimetry measures the heat released or taken up as one component is titrated into another.

The next assay addresses NTSR1 (Homo sapiens, UniProt P30989). Put plainly: Competition of NTS binding to NTSR1. The settings on record: data not shown.
In a further assay the target is proNGF (Homo sapiens) (UniProt P01138). The settings on record: cited from earlier work.
Sequence of proNGF (Homo sapiens) (P01138 122-241): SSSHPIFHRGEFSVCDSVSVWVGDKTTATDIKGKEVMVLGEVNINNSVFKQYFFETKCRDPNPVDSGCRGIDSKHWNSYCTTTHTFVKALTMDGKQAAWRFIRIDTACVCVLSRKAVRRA

Sequence of NTSR1 (P30989 whole entry, species assumed): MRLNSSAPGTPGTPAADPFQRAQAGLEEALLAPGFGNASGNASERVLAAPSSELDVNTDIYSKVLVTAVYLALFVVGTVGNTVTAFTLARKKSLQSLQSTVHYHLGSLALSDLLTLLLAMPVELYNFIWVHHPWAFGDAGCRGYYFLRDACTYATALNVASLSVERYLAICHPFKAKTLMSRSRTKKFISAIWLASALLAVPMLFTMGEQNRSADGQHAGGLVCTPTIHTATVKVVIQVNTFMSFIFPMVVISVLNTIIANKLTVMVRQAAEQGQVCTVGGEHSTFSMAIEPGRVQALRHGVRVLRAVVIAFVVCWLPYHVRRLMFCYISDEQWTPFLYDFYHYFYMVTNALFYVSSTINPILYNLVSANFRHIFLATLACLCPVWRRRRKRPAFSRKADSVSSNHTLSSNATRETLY

A word on the IC50: it is the point on the concentration scale where inhibition reaches its midpoint. In the case of `Cc1cc(=O)oc2c(CNC(CC(C)C)C(=O)O)c(O)ccc12` (stereo not shown) [Compound 1a], at sortilin [1], the half-inhibitory concentration (IC50) turned out to be 1.8 µM.

Turning to `Cc1cc(=O)oc2c(CNC(C(=O)O)C(C)C)c(O)ccc12` (stereo not shown) [Compound 1e], on sortilin [1], the IC50 was > 50 µM and the “activity in SPA assay (in words)” value is “activity was ablated”.

On to `Cc1cc(=O)oc2c(CNC(C(=O)O)C3CCCCC3)c(O)ccc12` (stereo not shown) [Compound 1d], for which, at sortilin [1], the IC50 came out at 1.7 ± 0.3 µM and the “activity in SPA assay (in words)” value was “activity was retained”.

Consider `Cc1cc(=O)oc2c(CNC(C)C(=O)O)c(O)ccc12` (stereo not shown) [Compound 1f], for which, at sortilin [1], the IC50 is > 50 µM and the “activity in SPA assay (in words)” value is “activity was ablated”.

With `Cc1cc(=O)oc2c(CN[C@H](CC(C)C)C(=O)O)c(O)ccc12` [Compound 1h], on sortilin [1], the IC50 is > 50 µM and the “activity in SPA assay (in words)” value is “inactive”.

As to `Cc1cc(=O)oc2c(CNC(CC(C)(C)C)C(=O)O)c(O)ccc12` (stereo not shown) [Compound 1c], at sortilin [1], the IC50 was determined as 3.1 ± 1.1 µM and the “activity in SPA assay (in words)” value was “activity was retained”.

As to `CCC(C)C(NCc1c(O)ccc2c(C)cc(=O)oc12)C(=O)O` (stereo not shown) [Compound 1b], at sortilin [1], the IC50 came to 6.1 ± 2.7 µM and the “activity in SPA assay (in words)” value is “activity was retained”.

`Cc1cc(=O)oc2c(CNC(Cc3ccccc3)C(=O)O)c(O)ccc12` (stereo not shown) [Compound 1g]: at sortilin [1], the IC50 is > 50 µM and the “activity in SPA assay (in words)” value was “activity was ablated”.

By Kd is commonly meant the equilibrium constant for the complex coming apart. For `Cc1cc(=O)oc2c(CN[C@@H](CC(C)C)C(=O)O)c(O)ccc12` [AF40431], the IC50 was 4.4 ± 0.7 µM at sortilin [1] and > 50 µM at NTSR1. Moreover, the Kd on sortilin [2] was found to be 0.7 µM.

Sortilin (from UniProt Q99523): the Kd in the assay with proNGF (Homo sapiens) is 0.00016 µM.
